Source: ChEMBL document CHEMBL1145395, “De novo design of selective antibiotic peptides by incorporation of unnatural amino acids” (J Med Chem, 2007)
In brackets after ≈: the same amount, converted by molar mass. Activity calls are given as the source filed them. No cut-off for these calls is given here. Non-standard residues stand in square brackets, D forms with d. Residues, ends and D or L forms follow the SMILES beside them. ξ: configuration not given here. Pro(3ξ,4ξ-(CH2)4) = O=C(O)[C@H]1NCC2CCCCC21; Oic = O=C(O)[C@@H]1C[C@@H]2CCCC[C@@H]2N1; Tic = O=C(O)[C@@H]1Cc2ccccc2CN1; ξTic = O=C(O)C1Cc2ccccc2CN1; Orn = NCCC[C@H](N)C(=O)O; Ahx = NCCCCCC(=O)O; GABA = NCCCC(=O)O

What was measured:
Salmonella typhimurium = assay: Antibacterial activity against Salmonella Typhimurium ATCC 13311; type: functional, Salmonella enterica subsp. enterica serovar Typhimurium; details: Salmonella enterica
Staphylococcus aureus = assay: Antibacterial activity against methicillin/gentamicin/tetracycline resistant Staphylococcus aureus ATCC 33592; type: functional
Mycobacterium = assay: Antibacterial activity against Mycobacterium ranae ATCC 110; type: functional
Bacillus subtilis = assay: Antibacterial activity against Bacillus subtilis ATCC 43223; type: functional
Mus musculus [1] = assay: Effect on wound healing in CD1 mouse skin at 100 ug applied topically after 3 days; type: functional
Mus musculus [2] = assay: Effect on wound healing in CD1 mouse skin at 100 ug applied topically after 5 days; type: functional
Mus musculus [3] = assay: Effect on wound healing in CD1 mouse skin at 100 ug applied topically after 7 days; type: functional
Mus musculus [4] = assay: Effect on wound healing in CD1 mouse skin at 100 ug applied topically after 9 days; type: functional
Mus musculus [5] = assay: Effect on wound healing in CD1 mouse skin at 100 ug applied topically after 11 days; type: functional
Mus musculus [6] = assay: Effect on wound healing in CD1 mouse skin at 100 ug applied topically; type: functional
Mus musculus [7] = assay: Acute toxicity in mouse at 1 mg/kg, ip after 6 days; type: organism-based; design: dose 1 mg/kg, route intraperitoneal; details: in vivo, 144 h
Mus musculus [8] = assay: Acute toxicity in mouse at 5 mg/kg, ip after 6 days; type: organism-based; design: dose 5 mg/kg, route intraperitoneal; details: in vivo, 144 h
Mus musculus [9] = assay: Acute toxicity in mouse at 25 mg/kg, ip after 6 days; type: organism-based; design: dose 25 mg/kg, route intraperitoneal; details: in vivo, 144 h
[10] = Toxicity to mouse RBC assessed as hemolytic activity at 100 uM; type: cell-based, Erythrocyte; details: red blood cells, read-out: Activity
[11] = Toxicity to mouse RBC assessed as hemolytic activity at 25 uM; type: cell-based, Erythrocyte; details: red blood cells, read-out: Activity
Mus musculus [12] = assay: Acute toxicity in mouse at 125 mg/kg, ip after 6 days; type: organism-based; design: dose 125 mg/kg, route intraperitoneal; details: in vivo, 144 h

| Structure (SMILES) | MIC (Salmonella typhimurium) [µM] | MIC (Staphylococcus aureus) [µM] | MIC (Mycobacterium) [µM] | MIC (Bacillus subtilis) [µM] | Activity (Mus musculus [1]) [%] | Activity (Mus musculus [2]) [%] | Activity (Mus musculus [3]) [%] | Activity (Mus musculus [4]) [%] | Activity (Mus musculus [5]) [%] | CT50 (Mus musculus [6]) [days] | Activity (Mus musculus [7]) | Activity (Mus musculus [8]) | Activity (Mus musculus [9]) | hemolysis at 100 µM [10] [%] | hemolysis at 25 µM [11] [%] | Activity (Mus musculus [12]) | Activity (Staphylococcus aureus) |
| --- | --- | --- | --- | --- | --- | --- | --- | --- | --- | --- | --- | --- | --- | --- | --- | --- | --- |
| CC(=O)NCC(=O)N[C@@H](Cc1ccccc1)C(=O)N1Cc2ccccc2C[C@H]1C(=O)N1[C@H](C(=O)NCC(=O)N[C@@H](CCCCN)C(=O)N2Cc3ccccc3C[C@H]2C(=O)N2[C@H](C(=O)NCC(=O)N[C@@H](Cc3ccccc3)C(=O)N3Cc4ccccc4C[C@H]3C(=O)N3[C@H](C(=O)NCC(=O)N[C@@H](CCCCN)C(=O)N4Cc5ccccc5C[C@H]4C(=O)N[C@@H](CCCCN)C(=O)N[C@@H](CCCCN)C(=O)N[C@@H](CCCCN)C(=O)N[C@@H](CCCCN)C(N)=O)C[C@@H]4CCCC[C@@H]43)C[C@@H]3CCCC[C@@H]32)C[C@@H]2CCCC[C@@H]21 (Ac-GF[Tic][Oic]GK[Tic][Oic]GF[Tic][Oic]GK[Tic]KKKK-NH2) [listing 1 of 2 here] | 10 (≈ 24.4 µg/mL) | 3 (≈ 7.32 µg/mL) | 10 (≈ 24.4 µg/mL) | 1 (≈ 2.44 µg/mL) | 36.3 | 51.5 | 63.3 | 69.8 | 77.5 | 6.1 |  |  |  |  |  |  |  |
| CC(=O)NCCCC(=O)N[C@@H](Cc1ccccc1)C(=O)N1Cc2ccccc2C[C@H]1C(=O)N1[C@H](C(=O)NCCCC(=O)N[C@@H](CCCCN)C(=O)N2Cc3ccccc3C[C@H]2C(=O)N2[C@H](C(=O)NCCCC(=O)N[C@@H](Cc3ccccc3)C(=O)N3Cc4ccccc4C[C@H]3C(=O)N3[C@H](C(=O)NCCCC(=O)N[C@@H](CCCCN)C(=O)N4Cc5ccccc5C[C@H]4C(=O)N[C@@H](CCCCN)C(=O)N[C@@H](CCCCN)C(=O)N[C@@H](CCCCN)C(=O)N[C@@H](CCCCN)C(N)=O)C[C@@H]4CCCC[C@@H]43)C[C@@H]3CCCC[C@@H]32)C[C@@H]2CCCC[C@@H]21 (Ac-[GABA]F[Tic][Oic][GABA]K[Tic][Oic][GABA]F[Tic][Oic][GABA]K[Tic]KKKK-NH2) [listing 1 of 2 here] |  |  |  |  |  |  |  |  |  |  | Non-toxic | Non-toxic | Non-toxic | 10.8 | 1 |  |  |
| CC(=O)N[C@@H](Cc1ccccc1)C(=O)N1Cc2ccccc2C[C@H]1C(=O)N1CC2CCCCC2[C@H]1C(=O)N[C@@H](CCCCN)C(=O)N1Cc2ccccc2C[C@H]1C(=O)N1CC2CCCCC2[C@H]1C(=O)N[C@@H](Cc1ccccc1)C(=O)N1Cc2ccccc2C[C@H]1C(=O)N1CC2CCCCC2[C@H]1C(=O)N[C@@H](CCCCN)C(=O)N1Cc2ccccc2C[C@H]1C(=O)N[C@@H](CCCCN)C(=O)N[C@@H](CCCCN)C(=O)N[C@@H](CCCCN)C(=O)N[C@@H](CCCCN)C(N)=O (stereo partly drawn) (Ac-F[Tic][Pro(3ξ,4ξ-(CH2)4)]K[Tic][Pro(3ξ,4ξ-(CH2)4)]F[Tic][Pro(3ξ,4ξ-(CH2)4)]K[Tic]KKKK-NH2) | 10 (≈ 22.1 µg/mL) | 3 (≈ 6.64 µg/mL) | 30 (≈ 66.4 µg/mL) | 1 (≈ 2.21 µg/mL) |  |  |  |  |  |  | Non-toxic | Non-toxic | Non-toxic | 86.8 | 50 |  |  |
| CC(=O)NCC(=O)N[C@@H](Cc1ccccc1)C(=O)N1Cc2ccccc2C[C@H]1C(=O)N1[C@H](C(=O)NCC(=O)N[C@@H](CCCCN)C(=O)N2Cc3ccccc3C[C@H]2C(=O)N2[C@H](C(=O)NCC(=O)N[C@@H](Cc3ccccc3)C(=O)N3Cc4ccccc4C[C@H]3C(=O)N3[C@H](C(=O)NCC(=O)N[C@@H](CCCCN)C(=O)N4Cc5ccccc5C[C@H]4C(=O)N[C@@H](CCCCN)C(=O)N[C@@H](CCCCN)C(=O)N[C@@H](CCCCN)C(=O)N[C@@H](CCCCN)C(N)=O)C[C@@H]4CCCC[C@@H]43)C[C@@H]3CCCC[C@@H]32)C[C@@H]2CCCC[C@@H]21 (Ac-GF[Tic][Oic]GK[Tic][Oic]GF[Tic][Oic]GK[Tic]KKKK-NH2) [listing 2 of 2 here] |  |  |  |  |  |  |  |  |  |  |  | Toxic | Toxic | 14 |  | Toxic |  |
| CC(=O)NCC(=O)N[C@@H](Cc1ccccc1)C(=O)N1Cc2ccccc2C[C@H]1C(=O)N1CC2CCCCC2[C@H]1C(=O)NCC(=O)N[C@@H](CCCN)C(=O)N1Cc2ccccc2C[C@H]1C(=O)N1CC2CCCCC2[C@H]1C(=O)NCC(=O)N[C@@H](Cc1ccccc1)C(=O)N1Cc2ccccc2C[C@H]1C(=O)N1CC2CCCCC2[C@H]1C(=O)NCC(=O)N[C@@H](CCCN)C(=O)N1Cc2ccccc2C[C@H]1C(=O)N[C@@H](CCCN)C(=O)N[C@@H](CCCN)C(=O)N[C@@H](CCCN)C(=O)N[C@@H](CCCN)C(N)=O (stereo partly drawn) (Ac-GF[Tic][Pro(3ξ,4ξ-(CH2)4)]G[Orn][Tic][Pro(3ξ,4ξ-(CH2)4)]GF[Tic][Pro(3ξ,4ξ-(CH2)4)]G[Orn][Tic][Orn][Orn][Orn][Orn]-NH2) | 3 (≈ 7.07 µg/mL) | 3 (≈ 7.07 µg/mL) | 10 (≈ 23.6 µg/mL) | 0.3 (≈ 0.707 µg/mL) | 38.8 | 51.2 | 67.2 | 72.8 | 81.1 | 4.7 |  |  |  |  |  |  |  |
| CC(=O)NCC(=O)N1Cc2ccccc2C[C@H]1C(=O)N1CC2CCCCC2[C@H]1C(=O)N[C@@H](CCCCN)C(=O)N1Cc2ccccc2C[C@H]1C(=O)N1CC2CCCCC2[C@H]1C(=O)NCC(=O)N1Cc2ccccc2CC1C(=O)N1CC2CCCCC2[C@H]1C(=O)N[C@@H](CCCCN)C(=O)N1Cc2ccccc2C[C@H]1C(=O)N[C@@H](CCCCN)C(=O)N[C@@H](CCCCN)C(=O)N[C@@H](CCCCN)C(=O)N[C@@H](CCCCN)C(N)=O (stereo partly drawn) (Ac-G[Tic][Pro(3ξ,4ξ-(CH2)4)]K[Tic][Pro(3ξ,4ξ-(CH2)4)]G[ξTic][Pro(3ξ,4ξ-(CH2)4)]K[Tic]KKKK-NH2) | 10 (≈ 20.3 µg/mL) | 10 (≈ 20.3 µg/mL) | 3 (≈ 6.1 µg/mL) | 1 (≈ 2.03 µg/mL) |  |  |  |  |  |  | Non-toxic | Non-toxic | Non-toxic | 26.7 | 9.2 |  |  |
| CC(=O)NCC(=O)N[C@@H](Cc1ccccc1)C(=O)N1Cc2ccccc2C[C@H]1C(=O)NCC(=O)N[C@@H](CCCCN)C(=O)N1Cc2ccccc2C[C@H]1C(=O)NCC(=O)N[C@@H](Cc1ccccc1)C(=O)N1Cc2ccccc2C[C@H]1C(=O)NCC(=O)N[C@H](CCCCN)C(=O)N1Cc2ccccc2C[C@H]1C(=O)N[C@@H](CCCCN)C(=O)N[C@@H](CCCCN)C(=O)N[C@@H](CCCCN)C(=O)N[C@@H](CCCCN)C(N)=O | 100 (≈ 199 µg/mL) |  | 30 (≈ 59.6 µg/mL) | 10 (≈ 19.9 µg/mL) |  |  |  |  |  |  |  |  |  | 6 | 4.9 |  | inactive |
| CC(=O)NCCCC(=O)N[C@@H](Cc1ccccc1)C(=O)N1Cc2ccccc2C[C@H]1C(=O)N1[C@H](C(=O)NCCCC(=O)N[C@@H](CCCCN)C(=O)N2Cc3ccccc3C[C@H]2C(=O)N2[C@H](C(=O)NCCCC(=O)N[C@@H](Cc3ccccc3)C(=O)N3Cc4ccccc4C[C@H]3C(=O)N3[C@H](C(=O)NCCCC(=O)N[C@@H](CCCCN)C(=O)N4Cc5ccccc5C[C@H]4C(=O)N[C@@H](CCCCN)C(=O)N[C@@H](CCCCN)C(=O)N[C@@H](CCCCN)C(=O)N[C@@H](CCCCN)C(N)=O)C[C@@H]4CCCC[C@@H]43)C[C@@H]3CCCC[C@@H]32)C[C@@H]2CCCC[C@@H]21 (Ac-[GABA]F[Tic][Oic][GABA]K[Tic][Oic][GABA]F[Tic][Oic][GABA]K[Tic]KKKK-NH2) [listing 2 of 2 here] | 100 (≈ 255 µg/mL) | 10 (≈ 25.5 µg/mL) | 10 (≈ 25.5 µg/mL) | 1 (≈ 2.55 µg/mL) | 39.7 | 54.1 | 64.9 | 72.7 | 79 | 5.7 |  |  |  |  |  |  |  |
| CC(=O)NCCCCCC(=O)N[C@@H](Cc1ccccc1)C(=O)N1Cc2ccccc2C[C@H]1C(=O)N1CC2CCCCC2[C@H]1C(=O)NCCCCCC(=O)N[C@@H](CCCCN)C(=O)N1Cc2ccccc2C[C@H]1C(=O)N1CC2CCCCC2[C@H]1C(=O)NCCCCCC(=O)N[C@@H](Cc1ccccc1)C(=O)N1Cc2ccccc2C[C@H]1C(=O)N1CC2CCCCC2[C@H]1C(=O)NCCCCCC(=O)N[C@@H](CCCCN)C(=O)N1Cc2ccccc2C[C@H]1C(=O)N[C@@H](CCCCN)C(=O)N[C@@H](CCCCN)C(=O)N[C@@H](CCCCN)C(=O)N[C@@H](CCCCN)C(N)=O (stereo partly drawn) (Ac-[Ahx]F[Tic][Pro(3ξ,4ξ-(CH2)4)][Ahx]K[Tic][Pro(3ξ,4ξ-(CH2)4)][Ahx]F[Tic][Pro(3ξ,4ξ-(CH2)4)][Ahx]K[Tic]KKKK-NH2) | 10 (≈ 26.7 µg/mL) | 10 (≈ 26.7 µg/mL) | 3 (≈ 8 µg/mL) | 1 (≈ 2.67 µg/mL) |  |  |  |  |  |  |  |  |  | 44.7 | 26.6 |  |  |
| CC(C)C[C@H](NC(=O)[C@@H](N)CCCCN)C(=O)N1Cc2ccccc2C[C@H]1C(=O)N1CC2CCCCC2[C@H]1C(=O)NCC(=O)N[C@@H](CCCCN)C(=O)N1Cc2ccccc2C[C@H]1C(=O)N1CC2CCCCC2[C@H]1C(=O)NCC(=O)N[C@@H](Cc1ccccc1)C(=O)N1Cc2ccccc2C[C@H]1C(=O)N1CC2CCCCC2[C@H]1C(=O)NCC(=O)N[C@@H](CCCCN)C(=O)N1Cc2ccccc2C[C@H]1C(=O)N[C@@H](CCCCN)C(=O)N[C@@H](CCCCN)C(=O)N[C@@H](CCCCN)C(=O)N[C@@H](CCCCN)C(N)=O (stereo partly drawn) (H-KL[Tic][Pro(3ξ,4ξ-(CH2)4)]GK[Tic][Pro(3ξ,4ξ-(CH2)4)]GF[Tic][Pro(3ξ,4ξ-(CH2)4)]GK[Tic]KKKK-NH2) | 3 (≈ 7.31 µg/mL) | 30 (≈ 73.1 µg/mL) | 3 (≈ 7.31 µg/mL) | 1 (≈ 2.44 µg/mL) |  |  |  |  |  |  | Non-toxic | Non-toxic | Non-toxic | 43.6 | 24.9 |  |  |
